{"source": "patent US9446039B2", "about": "“Aminoheteroaryl compounds as MTH1 inhibitors” (CEMM—FORSCHUNGSZENTRUM FÜR MOLEKULARE MEDIZIN GMBH, priority 2012, dated 2016)", "type_in_all_cases": "binding", "key": {"[1]": {"molecular_target": "SW480 colon carcinoma cells lysate proteins (Homo sapiens, UniProt O43707)", "sequence (O43707 whole entry)": "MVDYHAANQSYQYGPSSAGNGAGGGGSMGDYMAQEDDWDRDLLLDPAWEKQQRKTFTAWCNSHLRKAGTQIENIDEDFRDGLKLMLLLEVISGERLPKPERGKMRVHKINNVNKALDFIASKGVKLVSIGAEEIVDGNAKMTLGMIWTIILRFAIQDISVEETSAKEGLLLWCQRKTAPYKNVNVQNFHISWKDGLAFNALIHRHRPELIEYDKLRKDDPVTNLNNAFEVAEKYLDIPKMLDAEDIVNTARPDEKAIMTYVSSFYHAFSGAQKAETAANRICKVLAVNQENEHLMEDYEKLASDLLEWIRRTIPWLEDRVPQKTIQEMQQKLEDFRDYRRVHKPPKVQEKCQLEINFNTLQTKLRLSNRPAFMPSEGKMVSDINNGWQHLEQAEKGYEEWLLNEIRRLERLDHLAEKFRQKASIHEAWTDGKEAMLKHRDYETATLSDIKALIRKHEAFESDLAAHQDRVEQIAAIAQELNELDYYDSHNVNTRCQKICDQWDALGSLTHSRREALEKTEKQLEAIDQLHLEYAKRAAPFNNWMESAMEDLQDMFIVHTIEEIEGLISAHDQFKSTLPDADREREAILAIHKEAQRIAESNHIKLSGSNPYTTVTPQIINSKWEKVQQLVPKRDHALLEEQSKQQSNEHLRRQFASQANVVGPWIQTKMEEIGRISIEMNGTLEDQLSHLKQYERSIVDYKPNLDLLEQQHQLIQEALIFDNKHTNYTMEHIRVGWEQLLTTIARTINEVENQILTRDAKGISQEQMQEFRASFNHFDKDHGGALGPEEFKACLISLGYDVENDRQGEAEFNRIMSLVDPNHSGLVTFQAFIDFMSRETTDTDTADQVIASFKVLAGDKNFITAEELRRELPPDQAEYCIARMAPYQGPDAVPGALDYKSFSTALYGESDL", "conditions": "PreyGene ACTN4"}, "[2]": {"molecular_target": "SW480 colon carcinoma cells lysate proteins (Homo sapiens, UniProt P06753)", "sequence (P06753 whole entry)": "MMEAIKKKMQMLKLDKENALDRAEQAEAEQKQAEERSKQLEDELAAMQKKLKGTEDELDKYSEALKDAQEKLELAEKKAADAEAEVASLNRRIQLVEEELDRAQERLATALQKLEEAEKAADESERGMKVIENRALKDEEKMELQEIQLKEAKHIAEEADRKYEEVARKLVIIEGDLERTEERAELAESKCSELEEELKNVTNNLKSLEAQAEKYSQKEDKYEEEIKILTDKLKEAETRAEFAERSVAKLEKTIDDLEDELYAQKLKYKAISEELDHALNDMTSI", "conditions": "PreyGene TPM3"}, "[3]": {"molecular_target": "SW480 colon carcinoma cells lysate proteins (Homo sapiens, UniProt P55263)", "sequence (P55263 whole entry)": "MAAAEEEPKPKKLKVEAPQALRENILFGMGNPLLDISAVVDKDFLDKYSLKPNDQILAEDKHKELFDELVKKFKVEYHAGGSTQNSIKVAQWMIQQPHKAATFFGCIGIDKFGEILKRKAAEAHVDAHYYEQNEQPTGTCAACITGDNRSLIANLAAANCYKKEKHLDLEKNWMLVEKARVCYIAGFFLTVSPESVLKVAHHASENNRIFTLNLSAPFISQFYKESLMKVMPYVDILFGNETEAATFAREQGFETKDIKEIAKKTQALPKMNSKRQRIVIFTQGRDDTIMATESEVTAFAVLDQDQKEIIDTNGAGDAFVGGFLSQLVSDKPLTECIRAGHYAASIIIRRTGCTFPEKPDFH", "conditions": "PreyGene ADK"}, "[4]": {"molecular_target": "SW480 colon carcinoma cells lysate proteins (Homo sapiens, UniProt Q14974)", "sequence (Q14974 whole entry)": "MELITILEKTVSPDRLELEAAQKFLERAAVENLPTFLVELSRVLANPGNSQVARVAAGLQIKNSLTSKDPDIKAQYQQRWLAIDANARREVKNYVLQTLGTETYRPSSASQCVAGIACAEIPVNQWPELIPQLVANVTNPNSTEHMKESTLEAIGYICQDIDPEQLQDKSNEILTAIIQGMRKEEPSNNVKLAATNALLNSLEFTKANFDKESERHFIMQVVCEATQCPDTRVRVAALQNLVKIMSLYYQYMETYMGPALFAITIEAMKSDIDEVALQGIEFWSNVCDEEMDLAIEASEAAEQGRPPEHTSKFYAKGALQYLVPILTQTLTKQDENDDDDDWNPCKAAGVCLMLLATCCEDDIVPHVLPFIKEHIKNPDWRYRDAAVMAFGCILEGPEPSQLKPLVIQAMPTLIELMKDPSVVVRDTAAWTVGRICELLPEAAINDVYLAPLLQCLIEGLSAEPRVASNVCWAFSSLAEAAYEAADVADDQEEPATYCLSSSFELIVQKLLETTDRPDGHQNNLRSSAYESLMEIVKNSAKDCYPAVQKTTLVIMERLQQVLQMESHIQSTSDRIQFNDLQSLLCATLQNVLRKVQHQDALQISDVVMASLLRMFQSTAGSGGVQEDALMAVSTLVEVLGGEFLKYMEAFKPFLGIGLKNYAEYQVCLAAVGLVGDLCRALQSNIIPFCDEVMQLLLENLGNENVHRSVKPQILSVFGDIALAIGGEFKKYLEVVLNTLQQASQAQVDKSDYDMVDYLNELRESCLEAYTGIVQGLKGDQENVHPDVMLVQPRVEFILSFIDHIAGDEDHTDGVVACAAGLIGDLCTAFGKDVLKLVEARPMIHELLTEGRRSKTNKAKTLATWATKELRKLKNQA", "conditions": "PreyGene KPNB1"}, "[5]": {"molecular_target": "SW480 colon carcinoma cells lysate proteins (Homo sapiens, UniProt Q9Y266)", "sequence (Q9Y266 whole entry)": "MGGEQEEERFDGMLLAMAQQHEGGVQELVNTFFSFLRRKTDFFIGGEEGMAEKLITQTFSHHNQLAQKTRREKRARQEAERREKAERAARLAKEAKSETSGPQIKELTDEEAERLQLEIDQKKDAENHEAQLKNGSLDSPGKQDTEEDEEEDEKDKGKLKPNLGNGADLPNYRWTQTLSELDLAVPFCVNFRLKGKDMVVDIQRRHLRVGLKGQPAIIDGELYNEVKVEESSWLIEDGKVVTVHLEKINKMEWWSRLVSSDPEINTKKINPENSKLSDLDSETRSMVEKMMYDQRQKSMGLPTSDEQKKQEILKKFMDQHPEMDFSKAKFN", "conditions": "PreyGene NUDC; SW480 cells"}, "[6]": {"molecular_target": "SW480 colon carcinoma cells lysate proteins (Homo sapiens, UniProt P68366)", "sequence (P68366 whole entry)": "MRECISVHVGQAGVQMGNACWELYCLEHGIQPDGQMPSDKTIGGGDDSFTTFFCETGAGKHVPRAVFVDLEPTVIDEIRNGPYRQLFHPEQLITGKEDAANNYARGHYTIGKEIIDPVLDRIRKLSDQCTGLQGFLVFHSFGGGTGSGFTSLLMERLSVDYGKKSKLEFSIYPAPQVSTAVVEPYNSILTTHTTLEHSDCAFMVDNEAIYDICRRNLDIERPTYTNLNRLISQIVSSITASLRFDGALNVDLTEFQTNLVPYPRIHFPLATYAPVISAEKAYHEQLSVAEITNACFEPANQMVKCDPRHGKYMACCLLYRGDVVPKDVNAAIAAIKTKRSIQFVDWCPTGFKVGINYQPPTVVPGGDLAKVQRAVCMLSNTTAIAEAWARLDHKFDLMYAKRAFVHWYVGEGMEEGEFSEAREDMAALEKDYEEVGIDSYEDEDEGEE", "conditions": "PreyGene TUBA4A; SW480 cells"}, "[7]": {"molecular_target": "T1, SW480 colon carcinoma cells lysate proteins (Homo sapiens, UniProt P08758)", "T1 sequence (P08758 1-320)": "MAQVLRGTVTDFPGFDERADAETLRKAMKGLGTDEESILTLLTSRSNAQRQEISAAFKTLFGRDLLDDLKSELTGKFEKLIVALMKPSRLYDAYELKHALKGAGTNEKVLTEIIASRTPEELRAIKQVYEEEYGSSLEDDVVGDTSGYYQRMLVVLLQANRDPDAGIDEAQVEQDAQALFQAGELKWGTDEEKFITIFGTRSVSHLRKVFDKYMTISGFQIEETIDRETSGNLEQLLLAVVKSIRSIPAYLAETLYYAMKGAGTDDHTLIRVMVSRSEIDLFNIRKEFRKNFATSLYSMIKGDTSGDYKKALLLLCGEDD", "conditions": "PreyGene ANXA5"}, "[8]": {"molecular_target": "SW480 colon carcinoma cells lysate proteins (Homo sapiens, UniProt P61204)", "sequence (P61204 whole entry)": "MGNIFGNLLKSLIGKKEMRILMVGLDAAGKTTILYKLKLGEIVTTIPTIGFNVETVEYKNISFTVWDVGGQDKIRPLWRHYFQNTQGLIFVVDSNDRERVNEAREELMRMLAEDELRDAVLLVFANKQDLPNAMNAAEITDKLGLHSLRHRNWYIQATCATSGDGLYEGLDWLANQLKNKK", "conditions": "PreyGene ARF3"}, "[9]": {"molecular_target": "T2, SW480 colon carcinoma cells lysate proteins (Homo sapiens, UniProt Q9UHD8)", "T2 sequence (Q9UHD8 1-586)": "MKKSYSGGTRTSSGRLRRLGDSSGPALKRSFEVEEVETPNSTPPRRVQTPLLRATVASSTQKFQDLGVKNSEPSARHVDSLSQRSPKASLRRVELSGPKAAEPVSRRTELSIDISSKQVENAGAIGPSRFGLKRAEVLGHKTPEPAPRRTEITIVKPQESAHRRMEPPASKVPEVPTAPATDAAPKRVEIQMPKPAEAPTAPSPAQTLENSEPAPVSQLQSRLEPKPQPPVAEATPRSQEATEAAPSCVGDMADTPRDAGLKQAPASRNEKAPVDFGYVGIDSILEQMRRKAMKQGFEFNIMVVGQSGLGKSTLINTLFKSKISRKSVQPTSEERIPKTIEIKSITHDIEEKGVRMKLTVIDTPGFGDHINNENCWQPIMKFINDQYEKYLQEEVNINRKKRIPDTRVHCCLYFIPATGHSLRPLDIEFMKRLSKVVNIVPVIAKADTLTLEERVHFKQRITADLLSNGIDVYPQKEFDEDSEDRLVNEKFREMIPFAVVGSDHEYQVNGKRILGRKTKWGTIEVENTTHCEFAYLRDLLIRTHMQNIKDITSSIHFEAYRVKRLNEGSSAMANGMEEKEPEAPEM", "conditions": "PreyGene 09-Sep"}, "[10]": {"molecular_target": "SW480 colon carcinoma cells lysate proteins (Homo sapiens, UniProt P30040)", "conditions": "PreyGene ERP29"}, "[11]": {"molecular_target": "T3, SW480 colon carcinoma cells lysate proteins (Homo sapiens, UniProt Q07021)", "T3 sequence (Q07021 74-282)": "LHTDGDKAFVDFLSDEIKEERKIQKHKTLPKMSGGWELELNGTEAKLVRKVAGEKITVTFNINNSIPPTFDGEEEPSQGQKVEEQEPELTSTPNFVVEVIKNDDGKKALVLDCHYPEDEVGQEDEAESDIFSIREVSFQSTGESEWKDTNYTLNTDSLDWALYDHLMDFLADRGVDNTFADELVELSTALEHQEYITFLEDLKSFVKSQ", "conditions": "PreyGene C1QBP"}}, "data": [{"smiles": "C[C@H](Oc1cc(-c2cnn(C3CCNCC3)c2)cnc1N)c1c(Cl)ccc(F)c1Cl", "note": "[(5)-crizotinib]", "values": [{"measurement": "AvgP", "setting": "[1]", "value": 0.2923}, {"measurement": "SC.Exp. 1-1", "setting": "[1]", "value": 4}, {"measurement": "SC.Exp. 1-2", "setting": "[1]", "value": 4}, {"measurement": "SC.Exp. 2-1", "setting": "[1]", "value": 0}, {"measurement": "SC.Exp. 2-2", "setting": "[1]", "value": 0}, {"measurement": "Sum (SC.Exp.)", "setting": "[1]", "value": 8}, {"measurement": "AvgP", "setting": "[2]", "value": 0.4204}, {"measurement": "SC.Exp. 1-1", "setting": "[2]", "value": 2}, {"measurement": "SC.Exp. 1-2", "setting": "[2]", "value": 3}, {"measurement": "SC.Exp. 2-1", "setting": "[2]", "value": 0}, {"measurement": "SC.Exp. 2-2", "setting": "[2]", "value": 0}, {"measurement": "Sum (SC.Exp.)", "setting": "[2]", "value": 5}, {"measurement": "AvgP", "setting": "[3]", "value": 0.4613}, {"measurement": "SC.Exp. 1-1", "setting": "[3]", "value": 4}, {"measurement": "SC.Exp. 1-2", "setting": "[3]", "value": 3}, {"measurement": "SC.Exp. 2-1", "setting": "[3]", "value": 0}, {"measurement": "SC.Exp. 2-2", "setting": "[3]", "value": 0}, {"measurement": "Sum (SC.Exp.)", "setting": "[3]", "value": 7}, {"measurement": "AvgP", "setting": "[4]", "value": 0.5773}, {"measurement": "SC.Exp. 1-1", "setting": "[4]", "value": 7}, {"measurement": "SC.Exp. 1-2", "setting": "[4]", "value": 6}, {"measurement": "SC.Exp. 2-1", "setting": "[4]", "value": 1}, {"measurement": "SC.Exp. 2-2", "setting": "[4]", "value": 0}, {"measurement": "Sum (SC.Exp.)", "setting": "[4]", "value": 14}, {"measurement": "AvgP", "setting": "[5]", "value": 0}, {"measurement": "SC.Exp. 1-1", "setting": "[5]", "value": 0}, {"measurement": "SC.Exp. 1-2", "setting": "[5]", "value": 1}, {"measurement": "SC.Exp. 2-1", "setting": "[5]", "value": 0}, {"measurement": "SC.Exp. 2-2", "setting": "[5]", "value": 0}, {"measurement": "SC.Exp. Sum", "setting": "[5]", "value": 1}, {"measurement": "AvgP", "setting": "[6]", "value": 0}, {"measurement": "SC.Exp. 1-1", "setting": "[6]", "value": 22}, {"measurement": "SC.Exp. 1-2", "setting": "[6]", "value": 20}, {"measurement": "SC.Exp. 2-1", "setting": "[6]", "value": 14}, {"measurement": "SC.Exp. 2-2", "setting": "[6]", "value": 12}, {"measurement": "SC.Exp. Sum", "setting": "[6]", "value": 68}, {"measurement": "AvgP", "setting": "[7]", "value": 0.4332}, {"measurement": "SC.Exp. 1-1", "setting": "[7]", "value": 9}, {"measurement": "SC.Exp. 1-2", "setting": "[7]", "value": 6}, {"measurement": "SC.Exp. 2-1", "setting": "[7]", "value": 0}, {"measurement": "SC.Exp. 2-2", "setting": "[7]", "value": 0}, {"measurement": "Sum (SC.Exp.)", "setting": "[7]", "value": 15}, {"measurement": "AvgP", "setting": "[8]", "value": 0.1881}, {"measurement": "SC.Exp. 1-1", "setting": "[8]", "value": 2}, {"measurement": "SC.Exp. 1-2", "setting": "[8]", "value": 0}, {"measurement": "SC.Exp. 2-1", "setting": "[8]", "value": 0}, {"measurement": "SC.Exp. 2-2", "setting": "[8]", "value": 0}, {"measurement": "Sum (SC.Exp.)", "setting": "[8]", "value": 2}, {"measurement": "AvgP", "setting": "[9]", "value": 0.323}, {"measurement": "SC.Exp. 1-1", "setting": "[9]", "value": 1}, {"measurement": "SC.Exp. 1-2", "setting": "[9]", "value": 2}, {"measurement": "SC.Exp. 2-1", "setting": "[9]", "value": 0}, {"measurement": "SC.Exp. 2-2", "setting": "[9]", "value": 2}, {"measurement": "Sum (SC.Exp.)", "setting": "[9]", "value": 5}, {"measurement": "AvgP", "setting": "[10]", "value": 0.1841}, {"measurement": "SC.Exp. 1-1", "setting": "[10]", "value": 2}, {"measurement": "SC.Exp. 1-2", "setting": "[10]", "value": 0}, {"measurement": "SC.Exp. 2-1", "setting": "[10]", "value": 0}, {"measurement": "SC.Exp. 2-2", "setting": "[10]", "value": 0}, {"measurement": "Sum (SC.Exp.)", "setting": "[10]", "value": 2}, {"measurement": "AvgP", "setting": "[11]", "value": 0.33}, {"measurement": "SC.Exp. 1-1", "setting": "[11]", "value": 3}, {"measurement": "SC.Exp. 1-2", "setting": "[11]", "value": 3}, {"measurement": "SC.Exp. 2-1", "setting": "[11]", "value": 0}, {"measurement": "SC.Exp. 2-2", "setting": "[11]", "value": 0}, {"measurement": "Sum (SC.Exp.)", "setting": "[11]", "value": 6}]}]}
